Among the data in ChEMBL document CHEMBL5445981, “Affinity On-target Cellular Literature for EUbOPEN Chemogenomic Library” (2024) are Ki, IC50 and EC50 values, retold here.

Assay [1] deals with Dual specificity tyrosine-phosphorylation-regulated kinase 2 (Homo sapiens, UniProt Q92630). The experiment in a line: Affinity On-target Cellular interaction: (NanoBRET assay (in HEK293T cells)) EUB0000008b DYRK2. Also noted: mode of action Inhibitor, recommended concentration 1 uM. The format is cell-based, HEK-293T. A general note: BRET reads energy transfer from a luciferase to a nearby fluorophore.

Assay [2] addresses Dual specificity protein kinase CLK4 (Homo sapiens, UniProt Q9HAZ1). Briefly: Affinity On-target Cellular interaction: (NanoBRET assay (in HEK293T cells)) EUB0000008b CLK4. The class given is cell-based, HEK-293T. Also on record: mode of action Inhibitor, recommended concentration 1 uM.
Assay [3] concerns the target Dual specificity tyrosine-phosphorylation-regulated kinase 1A (Homo sapiens, UniProt Q13627). The experiment in a line: Affinity On-target Cellular interaction: (NanoBRET assay (in HEK293T cells)) EUB0000008b DYRK1A. The class given is cell-based, HEK-293T. Also on record: mode of action Inhibitor, recommended concentration 1 uM.
Assay [4] addresses Serine/threonine-protein kinase 17A (Homo sapiens, UniProt Q9UEE5).
Assay [5] deals with RAC-alpha serine/threonine-protein kinase (Homo sapiens, UniProt P31749). The experiment in a line: Affinity On-target Cellular interaction: (NanoBRET assay (HEK293T cells)) EUB0001563a AKT1. The format is cell-based. Also on record: mode of action Negative control for Borussertib, recommended concentration 1 uM. The settings on record: hek-293t.
The target in assay [6] is RAC-beta serine/threonine-protein kinase (Homo sapiens, UniProt P31751). The experiment in a line: Affinity On-target Cellular interaction: (NanoBRET assay (HEK293T cells)) EUB0001563a AKT2. The format is cell-based. Also noted: mode of action Negative control for Borussertib, recommended concentration 1 uM. The settings on record: hek-293t.
Assay [7] has as its target Cyclin-G-associated kinase (Homo sapiens, UniProt O14976). The experiment in a line: Affinity On-target Cellular interaction: (NanoBRET assay (HEK293T cells)) EUB0000229b GAK. The class given is cell-based, HEK-293T. Also on record: mode of action Negative control for SGC-GAK-1, recommended concentration 1 uM.
Assay [8] has as its target Serine/threonine-protein kinase SIK1 (Homo sapiens, UniProt P57059). Briefly: Affinity On-target Cellular interaction: (NanoBRET assay (HEK293T cells)) EUB0001479a SIK1. The format is cell-based, HEK-293T. Also noted: mode of action Negative control for MRIA9, recommended concentration 1 uM.
In assay [9] the target is Serine/threonine-protein kinase SIK3 (Homo sapiens, UniProt Q9Y2K2). Briefly: Affinity On-target Cellular interaction: (NanoBRET assay (HEK293T cells)) EUB0001479a SIK3. Also on record: mode of action Negative control for MRIA9, recommended concentration 1 uM. The class given is cell-based, HEK-293T.
In assay [10] the target is Serine/threonine-protein kinase SIK2 (Homo sapiens, UniProt Q9H0K1). Briefly: Affinity On-target Cellular interaction: (NanoBRET assay (HEK293T cells)) EUB0001479a SIK2. The format is cell-based, HEK-293T. Also on record: mode of action Negative control for MRIA9, recommended concentration 1 uM.
In assay [11] the target is T1, Inhibitor of nuclear factor kappa-B kinase subunit beta (Homo sapiens, UniProt O14920). The experiment in a line: Affinity On-target Cellular interaction: (Cellular assay (inhibition of phospho-IKBKB in HeLa cells)) EUB0001492b IKBKB. The class given is cell-based. Also noted: mode of action Inhibitor, recommended concentration 1 uM.
For assay [12], the target named is Histone-lysine N-methyltransferase NSD3 (Homo sapiens, UniProt Q9BZ95). Briefly: Affinity On-target Cellular interaction: (NanoBRET assay (Nluc-NSD3-PWWP1 fusion protein in U2OS cells)) EUB0000270b NSD3. The class given is cell-based. Also on record: mode of action Negative control for BI-9321, recommended concentration 1 uM.
For assay [13], the target named is Receptor tyrosine-protein kinase erbB-2 (Homo sapiens, UniProt P04626). Briefly: Affinity On-target Cellular interaction: (Western Blot (EGF-induced autophosphorylation of the chimera EGFR extracellular domain and erbB2 intracellular domain in NIH 3T3 cells)) EUB0000595a ERBB2. Also on record: mode of action Inhibitor, recommended concentration 1 uM. The conditions noted are these: nih3t3. The class given is cell-based. Background: A western blot detects proteins with antibodies after separation by electrophoresis.

For assay [14], the target named is Cyclin-dependent kinase 7 (Homo sapiens, UniProt P50613). Briefly: Affinity On-target Cellular interaction: (Radioactive in vitro kinase assays (from cellular wild-type CDK7 immunoprecipitated in HeLa cells)) EUB0001635a CDK7. The format is cell-based. Also on record: mode of action Covalent inhibitor, recommended concentration 1 uM.
In assay [15] the target is T1, Inhibitor of nuclear factor kappa-B kinase subunit beta. Briefly: Affinity On-target Cellular interaction: (NanoBRET assay (HEK293T cells)) EUB0001576a IKBKB. The class given is cell-based, HEK-293T. Also on record: mode of action Negative control for BI 605906, recommended concentration 1 uM.
The target in assay [16] is Casein kinase I isoform alpha (Homo sapiens, UniProt P48729). The experiment in a line: Affinity On-target Cellular interaction: (NanoBRET asssay (HEK293T cells)) EUB0001205a CSNK1A1. The format is cell-based, HEK-293T. Also noted: mode of action Inhibitor, recommended concentration 1 uM.
For assay [17], the target named is T2, Casein kinase I isoform epsilon (Homo sapiens, UniProt P49674). The experiment in a line: Affinity On-target Cellular interaction: (NanoBRET asssay (HEK293T cells)) EUB0001205a CSNK1E. The format is cell-based, HEK-293T. Also noted: mode of action Inhibitor, recommended concentration 1 uM.
Assay [18] addresses T3, Casein kinase I isoform delta (Homo sapiens, UniProt P48730). The experiment in a line: Affinity On-target Cellular interaction: (NanoBRET asssay (HEK293T cells)) EUB0001205a CSNK1D. The format is cell-based, HEK-293T. Also on record: mode of action Inhibitor, recommended concentration 1 uM.
The target in assay [19] is Dual specificity protein kinase CLK1 (Homo sapiens, UniProt P49759). The experiment in a line: Affinity On-target Cellular interaction: (NanoBRET assay (HEK293T cells)) EUB0001049a CLK1. The class given is cell-based, HEK-293T. Also noted: mode of action Negative control for SGC-CLK-1 (UNC-CAF-170 ), recommended concentration 1 uM.
The target in assay [20] is Dual specificity protein kinase CLK2 (Homo sapiens, UniProt P49760). The experiment in a line: Affinity On-target Cellular interaction: (NanoBRET assay (HEK293T cells)) EUB0001049a CLK2. Also noted: mode of action Negative control for SGC-CLK-1 (UNC-CAF-170 ), recommended concentration 1 uM. The format is cell-based, HEK-293T.
The target of another assay is SRSF protein kinase 1 (Homo sapiens, UniProt Q96SB4).
A further assay addresses SRSF protein kinase 2 (Homo sapiens, UniProt P78362).
Assay [21] addresses Nucleosome-remodeling factor subunit BPTF (Homo sapiens, UniProt Q12830). Briefly: Affinity On-target Cellular interaction: (NanoBRET assay (NL-BPTF BD in HEK293 cells)) EUB0000233b BPTF. The class given is cell-based. Also on record: mode of action Inhibitor, recommended concentration 1 uM.
The target in assay [22] is Chromatin remodeling regulator CECR2 (Homo sapiens, UniProt Q9BXF3). The experiment in a line: Affinity On-target Cellular interaction: (NanoBRET assay (NL-FL […] in HEK293 cells)) EUB0000233b CECR2. Also on record: mode of action Inhibitor, recommended concentration 1 uM. The class given is cell-based.
Assay [23] deals with T2, Casein kinase I isoform epsilon. The experiment in a line: Affinity On-target Cellular interaction: (NanoBRET asssay (HEK293T cells)) EUB0001201a CSNK1E. The class given is cell-based, HEK-293T. Also noted: mode of action Negative control for MU1742, recommended concentration 1 uM.
The target in assay [24] is T3, Casein kinase I isoform delta. Briefly: Affinity On-target Cellular interaction: (NanoBRET asssay (HEK293T cells)) EUB0001201a CSNK1D. The class given is cell-based, HEK-293T. Also noted: mode of action Negative control for MU1742, recommended concentration 1 uM.
The target in assay [25] is Histone-arginine methyltransferase CARM1 (Homo sapiens, UniProt Q86X55). Briefly: Affinity On-target Cellular interaction: (Western Blot (dimethylation of BAF155, BAF155me2a/BAF155, in HEK293T cells)) EUB0000255b CARM1. The class given is cell-based, HEK-293T. Also noted: mode of action Negative control for TP-064, recommended concentration 1 uM.
Assay [26] deals with Calcium/calmodulin-dependent protein kinase type 1D (Homo sapiens, UniProt Q8IU85). Briefly: Affinity On-target Cellular interaction: (NanoBRET assay (in HEK293T cells)) EUB0000878a CAMK1D. The class given is cell-based, HEK-293T. Also on record: mode of action Inhibitor, recommended concentration 100 nM.
Chain of Calcium/calmodulin-dependent protein kinase type 1D (Q8IU85 whole entry): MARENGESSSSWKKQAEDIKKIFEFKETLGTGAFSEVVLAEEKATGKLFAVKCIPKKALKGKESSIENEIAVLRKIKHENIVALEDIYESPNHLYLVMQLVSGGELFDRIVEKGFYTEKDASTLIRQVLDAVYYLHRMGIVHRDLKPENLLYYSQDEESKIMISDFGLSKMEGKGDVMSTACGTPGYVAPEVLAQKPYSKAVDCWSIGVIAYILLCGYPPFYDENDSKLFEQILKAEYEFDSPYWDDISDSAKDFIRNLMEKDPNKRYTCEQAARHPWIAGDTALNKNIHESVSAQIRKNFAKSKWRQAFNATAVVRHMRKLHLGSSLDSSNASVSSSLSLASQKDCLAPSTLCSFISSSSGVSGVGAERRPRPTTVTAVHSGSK

T2 sequence (P49674 whole entry, canonical isoform): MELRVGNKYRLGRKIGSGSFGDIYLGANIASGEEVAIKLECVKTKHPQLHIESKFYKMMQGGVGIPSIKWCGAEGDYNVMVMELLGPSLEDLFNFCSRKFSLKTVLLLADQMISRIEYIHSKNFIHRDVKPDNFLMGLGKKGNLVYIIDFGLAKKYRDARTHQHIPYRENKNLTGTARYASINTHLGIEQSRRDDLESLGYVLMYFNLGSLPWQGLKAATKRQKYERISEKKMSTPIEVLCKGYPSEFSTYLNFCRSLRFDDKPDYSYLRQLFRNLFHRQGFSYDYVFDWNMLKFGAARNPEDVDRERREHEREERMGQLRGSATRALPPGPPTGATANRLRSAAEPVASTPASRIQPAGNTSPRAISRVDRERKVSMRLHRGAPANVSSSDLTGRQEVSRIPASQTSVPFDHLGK
T3 sequence (P48730 whole entry, canonical isoform): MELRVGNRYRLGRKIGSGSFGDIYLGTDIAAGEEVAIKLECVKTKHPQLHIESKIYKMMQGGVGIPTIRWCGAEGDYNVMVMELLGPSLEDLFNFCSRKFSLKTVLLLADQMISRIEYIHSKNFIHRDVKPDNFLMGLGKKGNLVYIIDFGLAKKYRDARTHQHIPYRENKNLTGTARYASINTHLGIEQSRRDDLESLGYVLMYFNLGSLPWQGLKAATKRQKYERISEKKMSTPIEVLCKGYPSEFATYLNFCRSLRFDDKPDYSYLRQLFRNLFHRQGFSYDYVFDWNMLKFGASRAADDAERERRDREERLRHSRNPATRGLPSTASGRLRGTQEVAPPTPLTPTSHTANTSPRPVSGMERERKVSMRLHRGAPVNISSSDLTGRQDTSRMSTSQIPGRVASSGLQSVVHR
T1 sequence (O14920 whole entry, the tested form may be a part): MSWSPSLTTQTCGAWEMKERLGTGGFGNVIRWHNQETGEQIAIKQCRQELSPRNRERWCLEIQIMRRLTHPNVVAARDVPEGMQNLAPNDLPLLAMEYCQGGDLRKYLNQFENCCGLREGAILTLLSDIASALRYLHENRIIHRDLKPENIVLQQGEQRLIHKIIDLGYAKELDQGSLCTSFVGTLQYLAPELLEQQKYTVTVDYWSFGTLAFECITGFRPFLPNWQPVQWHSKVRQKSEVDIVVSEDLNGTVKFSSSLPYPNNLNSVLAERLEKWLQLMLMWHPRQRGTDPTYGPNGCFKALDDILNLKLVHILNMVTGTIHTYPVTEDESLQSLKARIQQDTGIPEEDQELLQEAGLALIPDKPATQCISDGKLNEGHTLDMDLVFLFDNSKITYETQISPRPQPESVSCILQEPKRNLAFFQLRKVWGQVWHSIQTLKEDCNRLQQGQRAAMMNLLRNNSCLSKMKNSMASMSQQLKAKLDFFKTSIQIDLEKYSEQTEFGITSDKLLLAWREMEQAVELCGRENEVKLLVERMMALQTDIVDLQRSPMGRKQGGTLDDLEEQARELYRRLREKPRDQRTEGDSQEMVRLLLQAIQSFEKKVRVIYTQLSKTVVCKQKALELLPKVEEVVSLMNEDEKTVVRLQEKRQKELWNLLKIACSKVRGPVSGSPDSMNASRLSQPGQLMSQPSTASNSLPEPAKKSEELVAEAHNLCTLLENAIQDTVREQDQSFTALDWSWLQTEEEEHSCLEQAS
Chain of Dual specificity protein kinase CLK1 (P49759 whole entry): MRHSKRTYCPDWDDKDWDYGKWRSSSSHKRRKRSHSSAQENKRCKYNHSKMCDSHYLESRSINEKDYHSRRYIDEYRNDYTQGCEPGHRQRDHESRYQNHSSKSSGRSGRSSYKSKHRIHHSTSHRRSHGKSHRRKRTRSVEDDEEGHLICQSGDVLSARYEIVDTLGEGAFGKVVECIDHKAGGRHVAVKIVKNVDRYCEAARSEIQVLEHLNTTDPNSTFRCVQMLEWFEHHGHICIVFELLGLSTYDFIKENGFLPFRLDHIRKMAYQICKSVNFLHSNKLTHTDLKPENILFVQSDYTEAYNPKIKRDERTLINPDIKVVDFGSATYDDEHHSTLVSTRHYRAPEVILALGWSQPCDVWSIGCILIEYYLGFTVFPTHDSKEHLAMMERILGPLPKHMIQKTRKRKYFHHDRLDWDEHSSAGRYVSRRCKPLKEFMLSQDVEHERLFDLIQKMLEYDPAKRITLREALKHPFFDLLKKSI
Chain of Casein kinase I isoform alpha (P48729 whole entry, canonical isoform): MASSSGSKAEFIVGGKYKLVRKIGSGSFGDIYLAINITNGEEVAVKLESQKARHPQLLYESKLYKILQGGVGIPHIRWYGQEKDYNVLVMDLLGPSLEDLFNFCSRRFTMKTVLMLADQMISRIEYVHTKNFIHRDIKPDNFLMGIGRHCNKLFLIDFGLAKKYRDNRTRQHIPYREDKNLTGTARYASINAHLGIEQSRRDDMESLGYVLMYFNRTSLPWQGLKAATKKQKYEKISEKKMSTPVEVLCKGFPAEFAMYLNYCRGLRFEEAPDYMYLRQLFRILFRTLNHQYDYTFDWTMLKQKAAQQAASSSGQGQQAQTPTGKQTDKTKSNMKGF
Chain of RAC-alpha serine/threonine-protein kinase (P31749 whole entry): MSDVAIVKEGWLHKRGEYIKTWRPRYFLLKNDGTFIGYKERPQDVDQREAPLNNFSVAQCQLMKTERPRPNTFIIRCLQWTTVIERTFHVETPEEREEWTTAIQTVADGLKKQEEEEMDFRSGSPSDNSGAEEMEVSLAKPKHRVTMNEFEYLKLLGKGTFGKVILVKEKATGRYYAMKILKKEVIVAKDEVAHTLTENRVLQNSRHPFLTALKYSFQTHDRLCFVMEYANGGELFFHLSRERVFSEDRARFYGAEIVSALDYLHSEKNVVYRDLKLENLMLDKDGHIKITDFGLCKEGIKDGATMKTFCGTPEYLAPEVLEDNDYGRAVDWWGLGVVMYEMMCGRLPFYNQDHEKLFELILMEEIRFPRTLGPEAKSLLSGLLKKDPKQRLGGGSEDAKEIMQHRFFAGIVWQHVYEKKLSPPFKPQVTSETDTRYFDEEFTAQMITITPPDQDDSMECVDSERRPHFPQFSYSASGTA
Chain of Dual specificity tyrosine-phosphorylation-regulated kinase 2 (Q92630 whole entry): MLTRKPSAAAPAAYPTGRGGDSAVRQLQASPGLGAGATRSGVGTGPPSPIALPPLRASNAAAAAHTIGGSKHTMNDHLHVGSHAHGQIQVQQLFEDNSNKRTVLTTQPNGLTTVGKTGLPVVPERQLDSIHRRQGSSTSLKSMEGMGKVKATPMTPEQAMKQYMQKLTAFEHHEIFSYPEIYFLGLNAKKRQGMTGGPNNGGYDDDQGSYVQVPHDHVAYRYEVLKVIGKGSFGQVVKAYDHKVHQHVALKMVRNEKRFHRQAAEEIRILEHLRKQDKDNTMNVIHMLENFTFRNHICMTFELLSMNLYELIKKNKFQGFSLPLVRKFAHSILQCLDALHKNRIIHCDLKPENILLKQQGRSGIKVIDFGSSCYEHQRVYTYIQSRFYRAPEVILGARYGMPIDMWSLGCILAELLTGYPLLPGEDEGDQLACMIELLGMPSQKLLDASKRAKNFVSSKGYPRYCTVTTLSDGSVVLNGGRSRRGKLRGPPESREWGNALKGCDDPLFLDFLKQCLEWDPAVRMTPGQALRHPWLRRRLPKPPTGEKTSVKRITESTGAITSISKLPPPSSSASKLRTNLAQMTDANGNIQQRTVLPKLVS
Chain of RAC-beta serine/threonine-protein kinase (P31751 whole entry): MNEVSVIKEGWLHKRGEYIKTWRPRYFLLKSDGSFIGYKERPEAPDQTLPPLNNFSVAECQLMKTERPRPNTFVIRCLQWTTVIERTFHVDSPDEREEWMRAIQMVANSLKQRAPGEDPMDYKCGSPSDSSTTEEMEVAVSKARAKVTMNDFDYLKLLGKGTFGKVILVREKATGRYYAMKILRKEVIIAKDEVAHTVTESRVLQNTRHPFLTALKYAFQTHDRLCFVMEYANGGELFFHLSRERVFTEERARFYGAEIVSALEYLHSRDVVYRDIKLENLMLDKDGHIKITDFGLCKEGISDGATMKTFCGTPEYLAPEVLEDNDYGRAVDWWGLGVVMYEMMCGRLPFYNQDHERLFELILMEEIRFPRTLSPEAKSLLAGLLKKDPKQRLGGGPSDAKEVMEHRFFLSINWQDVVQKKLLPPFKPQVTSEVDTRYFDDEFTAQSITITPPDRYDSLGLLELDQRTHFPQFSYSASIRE
Chain of Cyclin-dependent kinase 7 (P50613 whole entry): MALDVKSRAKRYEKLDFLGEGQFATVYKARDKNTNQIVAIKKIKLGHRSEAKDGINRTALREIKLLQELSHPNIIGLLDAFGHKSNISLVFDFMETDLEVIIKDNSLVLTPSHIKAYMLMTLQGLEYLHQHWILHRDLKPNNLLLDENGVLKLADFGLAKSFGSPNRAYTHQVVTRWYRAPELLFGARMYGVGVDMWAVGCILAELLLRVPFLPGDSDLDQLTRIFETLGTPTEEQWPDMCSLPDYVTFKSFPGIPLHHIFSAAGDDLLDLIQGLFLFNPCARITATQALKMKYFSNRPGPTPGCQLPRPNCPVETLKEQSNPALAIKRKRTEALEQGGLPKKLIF

As to `Cn1cc(-c2ccc3occ(-c4cccc(-c5ccncc5)c4)c3n2)cn1`, the values for the Ki in [1], in [2] and in [3] were 1.7 µM, 0.023 µM and 6.58 µM, respectively.

Consider `CN1CCN(C(=O)c2ccc3cc2OCCOCCNc2ccn4ncc-3c4n2)CC1`, for which the 50% inhibitory concentration (IC50) in [4] was > 45 µM.

As to `C=CC(=O)Nc1ccc2[nH]c(=O)n(C3CCN(Cc4ccc(-c5ccc6c(c5)NC(=O)CO6)cc4)CC3)c2c1` [RL2578], the IC50 in [5] was determined as 1.9 µM; in assay [6], 8.3 µM.

As to `COc1cc(N(C)c2ccnc3ccc(C(F)(F)F)cc23)cc(OC)c1OC`, the IC50 in [7] was > 5 µM.

As to `CN(C)c1ncc2cc(-c3ccc(-c4ncccc4F)cc3Cl)c(=O)n(C[C@H]3OC[C@H](N)CO3)c2n1`, the IC50 in assay [8], in [9] and in [10] was 14 µM in each case.

As to `CCC(F)(F)c1cc(N2CCC(S(C)(=O)=O)CC2)nc2sc(C(N)=O)c(N)c12` [BI-605906], the 50% effective concentration (EC50) in assay [11] came to 0.9 µM.

Consider `Cc1cc(CN)cc(C)c1-c1ncn(C)c1-c1cncn1C`, for which, in assay [12], the 50% inhibitory concentration (IC50) is > 10 µM.

In assay [13], `COCC(=O)NC/C=C/c1ccc2ncnc(Nc3ccc(Oc4ccc(C)nc4)c(C)c3)c2c1` [CP-724714] registered an IC50 of 0.032 µM.

`C=CC(=O)Nc1ccc(C(=O)Nc2n[nH]c3c2CN(C(=O)N[C@H](CN(C)C)c2ccccc2)C3(C)C)cc1`: the half-inhibitory concentration (IC50) in assay [14] stood at 0.0625 µM.

Turning to `CN(C)C(=O)c1sc2nc(N3CCC(S(C)(=O)=O)CC3)cc(C(F)(F)F)c2c1N` [BI-5026], the half-inhibitory concentration (IC50) in [15] is > 20 µM.

For the compound `CN1CCC(F)(Cn2cnc(-c3ccc(F)cn3)c2-c2ccnc3[nH]ccc23)CC1`, the IC50 in [16] amounted to 3.5 µM; in [17] it was 0.22 µM; in [18], 0.047 µM.

For `COc1cc(Nc2nc(C)cc(-c3cnn4nc(OC)ccc34)n2)cc(C(F)(F)F)c1`, the 50% inhibitory concentration (IC50) in assay [19] and in assay [20] was > 10 µM in each case.

Consider `CN(c1ncccc1CNc1ccnc(-c2cc3cc(Cl)ccc3[nH]2)n1)S(C)(=O)=O`, for which the half-inhibitory concentration (IC50) against SRSF protein kinase 1 and at SRSF protein kinase 2 was > 50 µM throughout.

For `CN(C)CCCOc1ccc(-c2cc(NCCCn3cccn3)nc(S(C)(=O)=O)n2)cc1`, the figures for the EC50 in assay [21] and in assay [22] were 0.228 µM and 0.289 µM, respectively.

`CCc1ccc(-c2ncn(CC3(F)CCN(C)CC3)c2-c2ccnc3[nH]ccc23)nc1`: the half-maximal inhibitory concentration (IC50) in assay [23] and in assay [24] was > 50 µM throughout.

Take `COCCN1CCC(c2cc(CN(C)C(=O)c3cccc(Oc4ccccc4)c3)ccn2)CC1`: the half-maximal inhibitory concentration (IC50) in [25] was > 10 µM.

Take `CC(C)c1cc(Nc2nc(N3CCC[C@H](N)C3)ncc2C(N)=O)cc(C(C)C)n1`: the IC50 in [26] was determined as 0.029 µM.

In general, Ki refers to the dissociation constant of the complex between target and ligand, obtained from inhibition or displacement. Read a low Ki as tighter binding. By IC50 is commonly meant the concentration that gives 50% inhibition. As a reminder, the EC50 is the concentration needed to bring the measured effect to its halfway point. A high value points to a need for much substance.
